Tests used:
[1] = Thermal Gravimetric Analysis (TGA); format: physicochemical; settings: in nitrogen, scan 20 to 520° C., ramp rate 10 degrees per minute
Procedure: Thermal Gravimetric Analysis (TGA)
Thermal gravimetric data were obtained on a Universal V3.9A TA Instrument. Temperature scan range was from 20 to 520° C. with a ramp rate of 10 degrees per minute. Sample sizes were typically about 10 mg of solid product.
In comparison, curves 1 and 2 show the thermal degradation profiles of products of Examples 7D and 13, respectively.
TGA Under Same Conditions as Comparative Example I for Various Dendrimers of Formula (I) and PAMAM

[2] = cited from earlier work

Compound | Onset Temp. (° C.) [1] [°C] | Temp. (° C.) at 50% wt loss [1] [°C] | Temp. (° C.) at Residue [1] | pKa value [2]
COC(=O)C1CC(=O)N(CCN(CCN2CC(C(=O)OC)CC2=O)CC(O)Cn2c(=O)n(CC(O)CN(CCN3CC(C(=O)OC)CC3=O)CCN3CC(C(=O)OC)CC3=O)c(=O)n(CC(O)CN(CCN3CC(C(=O)OC)CC3=O)CCN3CC(C(=O)OC)CC3=O)c2=O)C1 (stereo not shown) [Example 33] | 320 | 407 | 500+ ° C. | –
tris(hydroxymethyl)amino methane | – | – | – | 8.10
